Experimental data from patent publication US20030162759A1, “Aldosterone blocker therapy to prevent or treat inflammation-related disorders” (priority 2000, published 2003).

Key:
[1] = tested on: angiotensin II infused rats; assay: Assay A angiotensin II infusion model: heart histology (coronary vascular inflammation, myocardial injury); type: in vivo, rat; settings: out of ten animals per group; angiotensin II/salt, 4 weeks; eplerenone 100 mpk
[2] = tested on: angiotensin II infused rats; assay: Assay A angiotensin II infusion model: systolic blood pressure by tail-cuff; type: in vivo, rat; settings: Wistar rats, 1% NaCl, angiotensin II 25 ng/min sc; eplerenone 100 mpk; 4 weeks
Procedure: Assay A: In Vivo Angiotensin II Infusion Model
Male Wistar rats (n—50, 10/group; BW=200 g)
2. Angiotensin 11 (25 ng/min, sc via aizet minipump)
SBP measured by tail-cuff every week

Substance: angiotensin II: angiotensin II, 25 ng/min sc via minipump, used to induce hypertension with vascular inflammation in rats (DRVYIHPF; Angiotensin-2; UniProt P01015 25-32, looked up) [reference compound]
- Animals with vascular inflammatory lesions in the coronary arteries [1]: Seven out of the ten
- Systolic Blood Pressure [2]: Systolic blood pressure increased
